In ChEMBL document CHEMBL5233215, “Recent developments of chalcones as potential antibacterial agents in medicinal chemistry” (Eur J Med Chem, 2020) one finds MIC data, which are given here for 15 compounds.

In general, MIC refers to the smallest concentration in the dilution series that meets the test's criterion for growth inhibition.

Holding throughout (assay type): functional
The test system of one experiment is Micrococcus luteus. The experiment in a line: Antibacterial activity Micrococcus luteus NBRC 333 assessed as inhibition of bacterial growth after 48 hrs by two fold dilution method.
Experiment [1] relates to Bacillus subtilis. Put plainly: Antibacterial activity Bacillus subtilis NBRC 3757 assessed as inhibition of bacterial growth after 48 hrs by two fold dilution method.
Experiment [2] concerns Staphylococcus epidermidis. The experiment in a line: Antibacterial activity Staphylococcus epidermidis NBRC 12993 assessed as inhibition of bacterial growth after 48 hrs by two fold dilution method.
Experiment [3] has as its system Staphylococcus aureus. Put plainly: Antibacterial activity methicillin-sensitive Staphylococcus aureus ATCC 29213 assessed as inhibition of bacterial growth by CLSI based microbroth dilution assay. (In general: Broth dilution looks for growth in wells or tubes with falling amounts of substance.)
For experiment [4], the system named is Staphylococcus aureus. Put plainly: Antibacterial activity methicillin-resistant Staphylococcus aureus USA300 assessed as inhibition of bacterial growth by CLSI based microbroth dilution assay.
A further experiment concerns Bacillus anthracis. The experiment in a line: Antibacterial activity Bacillus anthracis Sterne 34F2 assessed as inhibition of bacterial growth by CLSI based microbroth dilution assay.
Another experiment relates to Pseudomonas aeruginosa. The experiment in a line: Antibacterial activity Pseudomonas aeruginosa Ps12 assessed as inhibition of bacterial growth incubated for 24 hrs by microbroth dilution assay.
In the next experiment the test system is Klebsiella pneumoniae. The experiment in a line: Antibacterial activity Klebsiella pneumoniae K4 assessed as inhibition of bacterial growth incubated for 24 hrs by microbroth dilution assay.
Experiment [5] deals with Staphylococcus aureus. The experiment in a line: Antibacterial activity methicillin-resistant Staphylococcus aureus MRSA ST-10342 assessed as inhibition of bacterial growth incubated for 16 to 24 hrs by broth microdilution assay. The settings on record: time 16-24 hrs.
The subject of experiment [6] is Staphylococcus aureus. Put plainly: Antibacterial activity methicillin-resistant Staphylococcus aureus MRSA ST-2438 assessed as inhibition of bacterial growth incubated for 16 to 24 hrs by broth microdilution assay. The following applies: time 16-24 hrs.
The test system of experiment [7] is Staphylococcus aureus. The experiment in a line: Antibacterial activity methicillin-resistant Staphylococcus aureus MRSA ST-2071 assessed as inhibition of bacterial growth incubated for 16 to 24 hrs by broth microdilution assay. The following applies: time 16-24 hrs.
Experiment [8] concerns Staphylococcus aureus. The experiment in a line: Antibacterial activity methicillin-resistant Staphylococcus aureus MRSA P-6642 assessed as inhibition of bacterial growth incubated for 16 to 24 hrs by broth microdilution assay. The following applies: time 16-24 hrs.
In experiment [9] the test system is Staphylococcus aureus. The experiment in a line: Antibacterial activity methicillin-resistant Staphylococcus aureus MRSA ST-1745 assessed as inhibition of bacterial growth incubated for 16 to 24 hrs by broth microdilution assay. The settings on record: time 16-24 hrs.
For experiment [10], the system named is Staphylococcus aureus. Put plainly: Antibacterial activity methicillin-resistant Staphylococcus aureus MRSA P-8029 assessed as inhibition of bacterial growth incubated for 16 to 24 hrs by broth microdilution assay. The following applies: time 16-24 hrs.
Experiment [11] relates to Staphylococcus aureus. Put plainly: Antibacterial activity methicillin-resistant Staphylococcus aureus MRSA ST-3151 assessed as inhibition of bacterial growth incubated for 16 to 24 hrs by broth microdilution assay. The following applies: time 16-24 hrs.
Experiment [12] concerns Staphylococcus aureus. Put plainly: Antibacterial activity methicillin-resistant Staphylococcus aureus MRSA B-10732 assessed as inhibition of bacterial growth incubated for 16 to 24 hrs by broth microdilution assay. The following applies: time 16-24 hrs.
Experiment [13] deals with Staphylococcus aureus. The experiment in a line: Antibacterial activity methicillin-resistant Staphylococcus aureus MRSA ST-5457 assessed as inhibition of bacterial growth incubated for 16 to 24 hrs by broth microdilution assay. The following applies: time 16-24 hrs.
Experiment [14] has as its system Staphylococcus aureus. Put plainly: Antibacterial activity methicillin-resistant Staphylococcus aureus MRSA B-10760 assessed as inhibition of bacterial growth incubated for 16 to 24 hrs by broth microdilution assay. The following applies: time 16-24 hrs.
The test system of experiment [15] is Mycobacterium tuberculosis. The experiment in a line: Antimycobacterial activity against Mycobacterium tuberculosis H37Rv CNCTC My 331/88 assessed as bacterial growth inhibition incubated for 5 days by resazurin dye based assay. The settings on record: H37Rv CNCTC My 331/88, 120 h, time 5 day.
The subject of a further experiment is Mycobacterium kansasii. The experiment in a line: Antimycobacterial activity against Mycobacterium kansasii CNCTC My 235/80 assessed as bacterial growth inhibition incubated for 5 days by resazurin dye based assay. The settings on record: CNCTC My 235/80, 120 h, time 5 day.
Experiment [16] relates to Mycolicibacterium smegmatis. The experiment in a line: Antimycobacterial activity against Mycobacterium smegmatis ATCC 607 assessed as bacterial growth inhibition incubated for 48 hrs by resazurin dye based assay. On the technique in general: Alamar Blue is a resazurin reagent that responds to reducing activity.
Experiment [17] concerns Staphylococcus aureus. The experiment in a line: Antibacterial activity methicillin-resistant Staphylococcus aureus OM481 assessed as inhibition of bacterial growth by liquid dilution method.
Experiment [18] relates to Staphylococcus aureus. Put plainly: Antibacterial activity methicillin-resistant Staphylococcus aureus OM584 assessed as inhibition of bacterial growth by liquid dilution method.
The subject of experiment [19] is Bacillus subtilis. The experiment in a line: Antibacterial activity Bacillus subtilis NCIM 2063 assessed as inhibition of bacterial growth incubated for 24 hrs by serial dilution technique.
The test system of a further experiment is Escherichia coli. The experiment in a line: Antibacterial activity Escherichia coli NCIM 2918 assessed as inhibition of bacterial growth incubated for 24 hrs by serial dilution technique.
In experiment [20] the test system is Staphylococcus aureus. The experiment in a line: Antibacterial activity Staphylococcus aureus NCIM 2079 assessed as inhibition of bacterial growth incubated for 24 hrs by serial dilution technique.
Experiment [21] deals with Staphylococcus aureus. The experiment in a line: Antibacterial activity methicillin-sensitive Staphylococcus aureus ATCC 25923 assessed as inhibition of bacterial growth after 24 hrs by NCCLS protocol based microdilution method.
Experiment [22] relates to Staphylococcus aureus. The experiment in a line: Antibacterial activity methicillin-resistant Staphylococcus aureus ATCC 44330 assessed as inhibition of bacterial growth after 24 hrs by NCCLS protocol based microdilution method.

Converted amounts (≈) assume the structure as drawn. Bounds are passed on as bounds.

On to `COc1cc(O)c(C(=O)/C=C/c2ccc(O)cc2)cc1CC=C(C)C`, for which the MIC (with Micrococcus luteus; in the experiment with Bacillus subtilis [1]; in experiment [2]) was 4 µg/mL (≈ 11.8 µM) throughout.
Take `CCN(CC)c1ccc(/C=C/C(=O)c2ccc(O)cc2O)cc1`: the MIC in the experiment with Staphylococcus aureus [3] was 6.25 µg/mL (≈ 20.1 µM); in the experiment on Staphylococcus aureus [4], 3.12 µg/mL (≈ 10 µM); in the experiment on Bacillus anthracis it was 3.12 µg/mL (≈ 10 µM).
Take `COc1cc(C(CC(=O)c2ccc(C)cc2)SC(=S)N2CCOCC2)cc(OC)c1OC` (stereo not drawn): the MIC in the experiment on Pseudomonas aeruginosa and in the experiment on Klebsiella pneumoniae was 8 µg/mL (≈ 16.8 µM) throughout.
As for `CC1CCN(c2ccc(/C=C/C(=O)c3ccc(O)cc3O)cc2)CC1`, the MIC turned out to be 6.25 µg/mL (≈ 18.5 µM) with Staphylococcus aureus [3], 3.12 µg/mL (≈ 9.26 µM) with Staphylococcus aureus [4] and 1.56 µg/mL (≈ 4.62 µM) with Bacillus anthracis.
With `COc1cc(C(=O)/C=C/c2ccc(O)cc2)ccc1O`, the MIC in the experiment with Staphylococcus aureus [5], with Staphylococcus aureus [6], in the experiment on Staphylococcus aureus [7], in the experiment on Staphylococcus aureus [8], in the experiment on Staphylococcus aureus [9] and in the experiment on Staphylococcus aureus [10] was 12.5 µg/mL (≈ 46.2 µM) in each case. Moreover, the MIC in the experiment on Staphylococcus aureus [11], with Staphylococcus aureus [12], in the experiment on Staphylococcus aureus [13] and in the experiment with Staphylococcus aureus [14] was 12.5 µg/mL (≈ 46.2 µM) in each case.
Take `CC(C)(C)c1cnc(C(=O)/C=C/c2ccccc2Cl)cn1`: the MIC is 3.13 µg/mL (≈ 10.4 µM) in [15], 25 µg/mL (≈ 83.1 µM) in the experiment on Mycobacterium kansasii and 3.9 µg/mL (≈ 13 µM) in experiment [16].
For `CC(C)=CCc1cc(C(=O)/C=C/c2ccc(O)cc2)c(O)cc1O` [BROUSSOCHALCONE B], the MIC in the experiment with Micrococcus luteus was determined as 16 µg/mL (≈ 49.3 µM); in the experiment on Bacillus subtilis [1], 8 µg/mL (≈ 24.7 µM); in experiment [2], 8 µg/mL (≈ 24.7 µM).
On to `Cc1cc(C(=O)/C=C/c2ccc(N3CCCCC3)cc2)ccc1O`, for which the MIC with Bacillus anthracis worked out at 1.56 µg/mL (≈ 4.85 µM).
Turning to `CC(C)=CCc1c(O)ccc(C(=O)/C=C/c2ccc(O)cc2)c1O` [ISOBAVACHALCONE], the MIC with Staphylococcus aureus [17] came out at 8 µg/mL (≈ 24.7 µM); with Staphylococcus aureus [18], 8 µg/mL (≈ 24.7 µM); in the experiment with Micrococcus luteus, 4 µg/mL (≈ 12.3 µM); with Bacillus subtilis [1], 4 µg/mL (≈ 12.3 µM); in experiment [2] it was 4 µg/mL (≈ 12.3 µM).
`COc1ccc(/C=C/C(=O)c2ccc(O)c(C)c2)cc1`: the MIC in the experiment with Bacillus anthracis turned out to be 12.5 µg/mL (≈ 46.6 µM).
Turning to `Cc1cc(C(=O)/C=C/c2ccc(Cl)cc2)ccc1O`, the MIC with Bacillus anthracis was 12.5 µg/mL (≈ 45.8 µM).
Take `O=C(/C=C/c1ccc(Br)cc1)c1ccc(Cl)cc1`: the MIC in the experiment on Bacillus subtilis [19], in the experiment with Escherichia coli and in the experiment on Staphylococcus aureus [20] was 1000 µg/mL (≈ 3110 µM) each time.
Consider `O=C(/C=C/c1ccc(O)c(O)c1)c1ccc(-c2ccccc2)cc1`, for which the MIC in the experiment on Staphylococcus aureus [5], with Staphylococcus aureus [6], in the experiment on Staphylococcus aureus [7], in the experiment with Staphylococcus aureus [8], with Staphylococcus aureus [9] and in the experiment with Staphylococcus aureus [10] was 25 µg/mL (≈ 79 µM) throughout. The MIC in the experiment on Staphylococcus aureus [11], with Staphylococcus aureus [12], in the experiment on Staphylococcus aureus [13] and in the experiment with Staphylococcus aureus [14] was 25 µg/mL (≈ 79 µM) in each case.
In the case of `O=C(/C=C/c1ccccc1O)c1cccs1`, the values for the MIC in the experiment on Staphylococcus aureus [21] and in the experiment on Staphylococcus aureus [22] were 32 µg/mL (≈ 139 µM) and 64 µg/mL (≈ 278 µM), respectively.
Turning to `CC(C)(C)c1cnc(C(=O)/C=C/c2ccccc2F)cn1`, the MIC was 6.25 µg/mL (≈ 22 µM) in experiment [15], 12.5 µg/mL (≈ 44 µM) in the experiment with Mycobacterium kansasii and greater than 500 µg/mL in experiment [16].
